In paper PMC9312196, “Enzymatic Biosynthesis of Simple Phenolic Glycosides as Potential Anti-Melanogenic Antioxidants” (Antioxidants, 2022):
Where “and” joins values, the source holds several entries; their conditions need not be identical. Identical values can stand only once. Like-named read-outs stand apart in the source and are kept apart here.

Key:
[1] = parameters: method as in PMID 35453457; conditions: read-out: DPPH radical scavenging IC50; cited from earlier work
[2] = DPPH free radical scavenging assay (in vitro antioxidant activity); conditions: 100 μM DPPH, 30 °C, 15 min
Description: DPPH (1,1-diphenyl-2-picryl-hydrazyl-hydrate) free radical scavenging assay was employed for determining the in vitro antioxidant activity of SP aglycones and their generated glycosides; L-ascorbic acid was utilized as a positive control whereas DMSO only was used as negative control. The antioxidant activities were expressed as IC50 value (as the concentration of an antioxidant at which 50% of inhibition of free radicals). In brief, 1.9 mL of the 100 μM DPPH reagent (in MeOH) was added into 0.1 mL of each sample diluted within 0.1 to 2 mM range (0.1, 0.2, 0.5, 1.0 and 2.0 mM dissolved in DMSO). After being mixed well by shaking for 5 s, the mixtures were then incubated at 30 °C for 15 min, followed by measuring absorbance with a microplate reader at 515 nm.

[3] = tested on: recombinant StSPGT glycosyltransferase; test: Michaelis-Menten kinetics of recombinant StSPGT glycosyl transfer; format: biochemical, Streptomyces tenjimariensis ATCC 31603
Description: (§1) To learn more details about the enzymatic function of a recombinant StSPGT, we investigated and determined its bio-catalytic properties using two nucleotide sugars as the glycosyl donor substrates; the production velocities of the corresponding glycosides were plotted against the varied glycosyl donor concentrations, […] with fixed acceptor concentrations. […]
(§2) the pGEM T-Easy vector (Promega, Madison, WI, USA) and transformed into E. coli XL1-Blue strain (Stratagene, La Jolla, CA, USA). The resultant plasmid obtained from was sequenced; the amplified ORF of interest (annotated as StSPGT) was deposited as GenBank Accession No.
The NdeI/XhoI-digested fragment excised from the aforementioned pGEM T-Easy vector was cloned into the same sites of the expression vector pET-28a(+) (Novagen, San Diego, CA, USA) and expressed as an N-terminal fusion protein with an His6 tag in E. coli BL21(DE3) strain (selected with […] kanamycin). After induction using 0.5 mM IPTG (Sigma-Aldrich) followed by an overnight incubation at 22°C, the cells were harvested and then disrupted by ultrasonication. The His6-tagged protein from the lysate was purified with TALON-metal affinity resin (Clontech, Mountain View, CA, USA) equilibrated with 50 mM phosphate buffer (0.3 M NaCl, 20 mM imidazole) and incubated at 4°C for 1 hr. After 5 min of refrigerated centrifuge at 2000 rpm, the resin was introduced into a disposable column and washed with phosphate buffer containing 20 mM imidazole, equivalent to 8 times the amount of the resin. Finally, recombinant […]
imidazole . The protein concentration was determined according to the Bradford method and the purified StSPGT was stored at −20°C prior to enzymatic reactions.
In vitro Enzymatic GT Reactions and Its Kinetic Studies
After dissolving two SP acceptor substrates, including HPP2 and HPP3, in methanol at 100 mM, we diluted them with a reaction buffer solution (50 mM phosphate buffer, 10 mM magnesium chloride and 1 mg/mL bovine serum albumin; pH 7.4) to the final concentration of 1 mM. Then we added 30 μM StSPGT glycosyltransferase along with four different nucleotide-activated glycosyl […]
GT reaction at 30°C for 30 min. After reaction, an equal volume of ethyl acetate was immediately added to quench the reaction. The organic solvent layer was evaporated to dryness at 40°C by […]
vacuum centrifugation (EYELA, Tokyo, Japan), and finally reconstituted in methanol prior to HPLC-tandem mass spectrometric (MS/MS) analysis.
For the determination of the kinetic parameters for each SP acceptor substrate, the concentration of glycosyl donor was fixed at 2 mM, while the concentration of SP was varied from […]

[4] = molecular target: T1, porcine pancreas elastase (Sus scrofa, UniProt P00772); test: In vitro elastase inhibition with AAAPVN substrate; format: biochemical; conditions: read-out: elastase inhibitory IC50
T1 construct: purchased Sigma-Aldrich; host or cells: porcine pancreas
Description: The in vitro inhibitory effects of SPs and their glycosides on elastase activity (known as anti-wrinkle bioactivities) were assessed using porcine pancreas elastase (Sigma-Aldrich). Its synthetic substrate AAAPVN (Sigma-Aldrich) was dissolved in phosphate buffer (pH 8.0, 200 mM). In each well of a 96-well microplate, the above elastase (20 μL) was mixed with the SPs and their glycosides in the phosphate buffer (150 μL) and then pre-incubated at 25 °C for 15 min prior to substrate AAAPVN (30 μL) supplementation.

[5] = tested on: melanin biosynthesis in B16F10 murine melanoma cells; test: Inhibition of α-MSH-induced cellular melanin biosynthesis in B16F10 cells; format: cell-based; conditions: fixed 20 μM treatments, 48 h, 2 μM α-MSH
Description: The inhibitory effects of SPs and their glycosides towards cellular melanin biosynthesis were examined using the above-described B16F10 murine melanoma cells. After 24 h seed cultivation in a 24-well plate, these cells were treated with the indicated concentrations of SPs and their glycosides for a further 48 h in the presence of 2 μM α-melanocyte stimulating hormone (α-MSH, Sigma-Aldrich). After washing twice with chilled Dulbecco’s PBS supplemented with calcium chloride and magnesium chloride, the resulting cells were treated with trypsin-EDTA solution (Sigma-Aldrich) to recover melanoma cells. After centrifugation at 1000× […] for 3 min, the cell pellet recovered was dissolved in 100 μL of 1 M NaOH solution (containing 10% DMSO) at 55 °C for 1 h. The melanin content was determined by the absorbance at 405 nm using a microplate reader according to the calibration curve obtained from melanin (Sigma-Aldrich) standards, and melanin synthesis inhibitory activities were expressed as the percentage inhibition of cellular melanin synthesis in the above assay; α-arbutin was used as positive control, while DMSO only was used as negative control.

[6] = molecular target: T2, tyrosinase (mushroom origin) (Agaricus bisporus, UniProt C7FF04); test: In vitro tyrosinase inhibition with L-tyrosine as substrate; format: biochemical; conditions: for IC50: mushroom tyrosinase, L-tyrosine substrate, read-out: tyrosinase inhibitory IC50; for fold higher tyrosinase inhibitory effect than kojic acid: ratio of IC50 values vs kojic acid
T2 construct: purchased Sigma-Aldrich
Description: The in vitro inhibitory effects of SPs and their glycosides towards tyrosinase (Sigma-Aldrich; mushroom origin; 2000 Unit/mL) activities were determined using L-tyrosine as a substrate. Briefly, the reaction mixtures, comprising 100 μL phosphate buffer (pH 6.8, 100 mM), 20 μL of tyrosinase (250 U/mL) and 20 μL of varying concentrations of SPs and their glycosides (in DMSO), were preincubated at 30 °C for 10 min.

[7] = tested on: intracellular ROS in TBHP-induced B16F10 cells; test: DCFDA cellular ROS detection assay in TBHP-induced B16F10 cells; format: cell-based, murine; conditions: 5.0, 10 and 20 μM tested
Description: The intracellular reactive oxygen species (ROS) level was quantitatively determined using the dichlorofluorescin diacetate (DCFDA) cellular ROS detection assay kit (ab113851, Abcam, Cambridge, UK), according to the manufacturer’s instructions. Briefly, B16F10 cells were seeded in a 24-well plate at a density of 2 × 10^3 cells/well. The cells were washed three times using PBS and subjected to staining with 20 μM DCFDA in PBS for 20 min at 37 °C under dark conditions. After staining, the cells were washed with PBS again and incubated with 50 μM TBHP solution (Sigma-Aldrich, St. Louis, MO, USA). Cells were treated time-dependently (10, 30 min and 1 h) with the indicated concentrations of SPs and their glycosides in 0.1% bovine serum albumin containing culture media after DCFDA incubation. The ROS level was analyzed by a fluorescence microplate reader (SpectraMax Gemini XPS/EM, Molecular Devices, Sunnyvale, CA, USA) set at an excitation wavelength of 485 nm and an emission wavelength of 545 nm. Relative fluorescence intensity of controls was equated to 100%, with treatment conditions estimated proportionally.
The in vitro antioxidant activity of SP aglycones and their corresponding glycosides was evaluated through their DPPH-driven radical scavenging abilities in comparison with a well-known antioxidant, L-ascorbic acid. […] Although the mean IC50 values of HPP2G and HPP2DG appear to be a little lower than those of HPP3G and HPP3DG, respectively, there was, however, no statistically significant difference found within (also between) these glycoside groups. Next, we implemented a DCFDA cell-based ROS detection assay to determine whether the SP aglycones and their glycoside analogs function in vivo as antioxidants against intracellular ROS synthesis in the above-described B16F10 cells or not. The TBHP-induced cells were further incubated with different concentrations (5.0, 10 and 20 μM) of SPs and their glycosides for varied time periods (10, 30 min and 1 h).

StSPGT [8] = tested on: T3, StSPGT; test: Michaelis-Menten kinetics of glycosyl transfer by HPLC-MS/MS product quantitation, donor varied 0.1-1.2 mM at fixed 1.0 mM acceptor HPP2, 50 mM phosphate pH 7.4, 10 mM MgCl2, 30 °C.; format: biochemical; conditions: SD, n = 3
T3 construct: recombinant, N-terminal His6 tag, pET-28a(+), expressed in E. coli BL21(DE3)
Description: as §1, §2
(§3) The NdeI/XhoI-digested fragment excised from the aforementioned pGEM T-Easy vector was cloned into the same sites of the expression vector pET-28a(+) (Novagen, San Diego, CA, USA) and expressed as an N-terminal fusion protein with an His6 tag in E. coli BL21(DE3) strain (selected with […] kanamycin). After induction using 0.5 mM IPTG (Sigma-Aldrich) followed by an overnight incubation at 22°C, the cells were harvested and then disrupted by ultrasonication. […]
(§4) imidazole . The protein concentration was determined according to the Bradford method and the purified StSPGT was stored at −20°C prior to enzymatic reactions. […]

StSPGT [9] = tested on: T3, StSPGT; test: Michaelis-Menten kinetics of glycosyl transfer by HPLC-MS/MS product quantitation, donor varied 0.1-1.2 mM at fixed 1.0 mM acceptor HPP3, 50 mM phosphate pH 7.4, 10 mM MgCl2, 30 °C.; format: biochemical; conditions: SD, n = 3
Description: as §1, §2, §3, §4

[10] = tested on: B16F10 murine melanoma cells; parameters: method as in PMID 28467382; conditions: concentrations less than 5.0 mM; cited from earlier work
[11] = tested on: B16F10 murine melanoma cells; test: MTT cytotoxicity assay on B16F10 cells; format: cell-based; conditions: 48 h treatment, highest 20 mM concentration
Description: The cytotoxic effects of SP aglycones and their glycosides on B16F10 cells was determined using a conventional MTT assay. B16F10 murine melanoma cells were routinely maintained in Dulbecco’s modified Eagle’s medium (DMEM) (Gibco, New York, NY, USA) supplemented with 10% heat-inactivated fetal bovine serum (Gibco), 100 units/mL penicillin and 100 μg/mL streptomycin (Gibco) at 37 °C under humidified 5% CO2 atmosphere. For the assay, these B16F10 cells were seeded in advance in 24-well plastic tissue culture plates at a density of 2 × 10^3 cells/well. After 24 h cultivation, the cells within individual wells were treated with the indicated concentrations of SPs and their glycosides for 48 h. The cells were incubated with MTT solution for additional 4 h in the dark, and the reduced formazan crystals were then dissolved in DMSO; the DMSO percentage in the media was kept below 0.5%. The resulting mixture was transferred to a 96-well microplate, and then the absorbance was measured at 570 nm using a SpectraMax microplate reader (Molecular Devices, Sunnyvale, CA, USA).
[…]. The treatment concentrations of SP aglycones and their glycosides for the bioassays were selected in advance by monitoring their cytotoxicity against the B16F10 murine melanoma cell line using α-arbutin as the reference. […]

T1 sequence (P00772 27-266): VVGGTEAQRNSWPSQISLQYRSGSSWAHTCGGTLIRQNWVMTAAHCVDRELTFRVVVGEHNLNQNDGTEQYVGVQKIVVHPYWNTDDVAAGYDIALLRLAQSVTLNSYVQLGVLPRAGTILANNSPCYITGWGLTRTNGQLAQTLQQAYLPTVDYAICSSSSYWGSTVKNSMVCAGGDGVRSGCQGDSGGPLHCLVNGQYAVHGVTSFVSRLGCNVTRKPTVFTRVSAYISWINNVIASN
T2 sequence (C7FF04 1-392 limits assumed): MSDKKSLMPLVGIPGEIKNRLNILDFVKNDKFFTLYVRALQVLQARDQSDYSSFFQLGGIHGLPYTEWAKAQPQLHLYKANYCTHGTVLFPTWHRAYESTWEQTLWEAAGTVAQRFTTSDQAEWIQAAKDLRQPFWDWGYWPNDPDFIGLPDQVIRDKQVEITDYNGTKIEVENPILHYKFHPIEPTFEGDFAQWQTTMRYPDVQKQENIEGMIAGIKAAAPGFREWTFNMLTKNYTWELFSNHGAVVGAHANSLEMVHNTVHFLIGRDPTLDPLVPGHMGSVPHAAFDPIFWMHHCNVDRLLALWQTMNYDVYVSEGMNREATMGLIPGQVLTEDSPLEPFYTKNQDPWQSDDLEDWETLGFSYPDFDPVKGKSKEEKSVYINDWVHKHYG

IC50 [2] | IC50 [4] | IC50 [6] | Compound | inhibition of α-MSH-induced intracellular melanin biosynthesis [5] | maximal ROS-scavenging activity [7] | also measured
23 µM | – | – | O=C1O[C@H]([C@@H](O)CO)C(O)=C1O [L-ascorbic acid, reference compound] | – | – | IC50 [1]: 22 µM
19.3 µM | 99.1 µM | 23.4 µM | CCC(O)c1ccc(O)cc1 (stereo not shown) [HPP3] | 21.7% | – | kcat ([3]; donor TDP-2′dGlc): 11.19 ± 2.23 min⁻¹; kcat ([3]; donor UDP-Glc): 16.87 min⁻¹ and 16.87 ± 2.98 min⁻¹; fold higher tyrosinase inhibitory effect than kojic acid [6]: ~3.3 fold
– | 25.3 µM | 13.8 µM | CC(Cc1ccc(O)cc1)O[C@@H]1C[C@@H](O)[C@H](O)[C@@H](CO)O1 (stereo partly drawn) [HPP2DG, hydroxyphenyl-2-propanoyl-O-α-2″-deoxyglucoside] | – | 54.3% | –
– | – | – | Cc1cn([C@H]2C[C@H](O)[C@@H](COP(=O)(O)OP(=O)(O)O[C@@H]3C[C@@H](O)[C@H](O)[C@@H](CO)O3)O2)c(=O)[nH]c1=O [TDP-2′dGlc, thymidine diphosphate-2′-deoxyglucose] | – | – | Km (StSPGT [8]): 0.41 ± 0.07 mM; Km (StSPGT [9]): 0.5 ± 0.09 mM
– | 22.1 µM | 14.8 µM | CC(Cc1ccc(O)cc1)O[C@H]1O[C@H](CO)[C@@H](O)[C@H](O)[C@H]1O (stereo partly drawn) [HPP2G, hydroxyphenyl-2-propanoyl-O-α-glucoside] | – | 52.0% | –
18.5 µM | 95.3 µM | 11.6 µM | CC(O)Cc1ccc(O)cc1 (stereo not shown) [HPP2] | 50.3% | – | kcat ([3]; donor TDP-2′dGlc): 12.93 ± 2.18 min⁻¹; kcat ([3]; donor UDP-Glc): 19.41 min⁻¹ and 19.41 ± 3.22 min⁻¹; fold higher tyrosinase inhibitory effect than kojic acid [6]: about 6.6 fold
– | – | – | OC[C@H]1O[C@H](Oc2ccc(O)cc2)[C@H](O)[C@@H](O)[C@@H]1O [α-arbutin] | about 20.3% | – | cytotoxicity for the B16F10 cells [10]: no cytotoxicity; change of cell viability [11]: less than 5 % of the control
– | 30.7 µM | 30.9 µM | CCC(O[C@@H]1C[C@@H](O)[C@H](O)[C@@H](CO)O1)c1ccc(O)cc1 (stereo partly shown) [HPP3DG] | – | 45.7% | –
– | – | 10.3 µM | Oc1ccc(O)cc1 [hydroquinone, reference compound] | – | – | –
– | 31.5 µM | 29.1 µM | CCC(O[C@H]1O[C@H](CO)[C@@H](O)[C@H](O)[C@H]1O)c1ccc(O)cc1 (stereo partly shown) [HPP3G] | – | 48.9% | –
